Data on three molecules can be found in patent publication US6461997B1, “Triazole sulfones having herbicidal activity” (Monsanto Technology LLC, priority 1999, dated 2002).

Experiment [1] deals with SOLNI (black nightshade). Kind of experiment: Pre-emergence herbicidal activity, warm season. It counts as in vivo, Solanum nigrum. As to conditions: GR80 = lowest tested rate (300, 100, 30, 10 g/ha) with 80% or greater inhibition; approx. 14 days after treating; 30/21° C. The method, boiled down: (§1)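 Seeds sown in sterilised fertilised topsoil received surface-applied compound in 50:50 acetone/water, typically at 300, 100, 30 and 10 g/ha, then greenhouse-grown at 30/21° C (warm-season species) or 18/13° C (cool-season species). Percent inhibition versus untreated plants was scored at about 14 days, giving GR80; an asterisk marks activity short of 80% at the top rate.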

Experiment [2] deals with CIRAR (canada thistle (seedling)). Briefly: Pre-emergence herbicidal activity, warm season. It is filed as in vivo, Cirsium arvense. The following applies: GR80 = lowest tested rate (300, 100, 30, 10 g/ha) with 80% or greater inhibition; approx. 14 days after treating; 30/21° C. The essentials:
as §1

Experiment [3] deals with SORHA (johnsongrass (seedling)). Briefly: Pre-emergence herbicidal activity, warm season. It is filed as in vivo, Sorghum halepense. As to conditions: GR80 = lowest tested rate (300, 100, 30, 10 g/ha) with 80% or greater inhibition; approx. 14 days after treating; 30/21° C. The essentials:
as §1

Another experiment deals with POLCO (wild buckwheat). Kind of experiment: Pre-emergence herbicidal activity, cool season. The following applies: lowest tested rate with 80% or greater inhibition; rates 300, 100, 30, 10 g/ha; about 14 days. It counts as in vivo, Polygonum convolvulus. The method, boiled down:
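Seeds were sown in sterilized, fertilized topsoil, covered, and the soil surface was sprayed with compound in 50:50 acetone/water at 300, 100, 30 and 10 g/ha. Pots were held at 30/21 °C day/night (PANMI, DIGSA) or 18/13 °C (ALOMY, POLCO). GR80 came from percent inhibition versus untreated plants at about 14 days.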

Experiment [4] concerns VERPE (creeping speedwell). Briefly: Pre-emergence herbicidal activity, cool season. It is filed as in vivo, Veronica persicaria. The following applies: lowest tested rate with 80% or greater inhibition; rates 300, 100, 30, 10 g/ha; about 14 days. The essentials: as §1
In experiment [5] the test system is AGSST (creeping bentgrass). Briefly: Pre-emergence herbicidal activity, cool season. It counts as in vivo, Agrostis stolonifera. The following applies: GR80 = lowest tested rate (300, 100, 30, 10 g/ha) with 80% or greater inhibition; approx. 14 days after treating; 18/13° C. The essentials: as §1
Experiment [6] concerns SOLNI (black nightshade). Kind of experiment: Pre-plant incorporated (PPI) herbicidal activity, warm season. It is filed as in vivo, Solanum nigrum. The essentials:
(§2)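 Spray-treated, thoroughly mixed cover soil was laid over seeds; untreated soil served as control cover. Day/night temperatures: 30/21° C warm season, 18/13° C cool season. Efficacy recorded ~14 days after planting as percent inhibition.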

In experiment [7] the test system is BRAPP (broadleaf signalgrass). The description is as above. It is filed as in vivo, Brachiaria platyphylla. The essentials: as §2
The test system of a further experiment is SETVI (green foxtail). Briefly: Pre-plant incorporated (PPI) herbicidal activity, cool season. It counts as in vivo, Setaria viridis. The essentials: as §2
A further experiment has as its system POAAN (annual bluegrass). The experiment is described as above. The following applies: weed, PPI application. It is filed as in vivo, Poa annua. The method, boiled down:
as §2

[8] abbreviates: pre-plant incorporated, lowest tested rate with 80% or greater inhibition, about 14 days.
Setting [9] is: weed, PPI application, 100 g/ha.
Setting [10] is: weed, PPI application, 300 g/ha.
Where [11] appears, read: weed, PPI application, 900 g/ha.

Broadly, the inhibition is the change of the read-out against control, counted positive when it falls. As for `CCSC(F)(F)S(=O)(=O)c1ncn(C(=O)N(CC)CC)n1` [Example 8, 1-(N,N-diethylcarbamoyl)-3-[difluoro(ethylthio)methylsulfonyl]-1,2,4-triazole], the “Pre-emergence activity (GR80) SOLNI” value in the experiment on SOLNI (black nightshade) [1] turned out to be 100 g/ha. The “Pre-emergence activity (GR80) CIRAR” value in experiment [2] is 300 g/ha. In addition, the “Pre-emergence activity (GR80) SORHA” value in [3] is 100 g/ha. In addition, in the experiment with POLCO (wild buckwheat), the “Pre-emergence activity GR80, POLCO” value was “[empty]”. The “Pre-emergence activity GR80, VERPE” value in [4] stood at 30 g/ha. Moreover, the “Pre-emergence activity (GR80) AGSST” value in experiment [5] turned out to be 30 g/ha. The inhibition at 30 g/ha with SOLNI (black nightshade) [6] (Solanum nigrum, PPI application, 30 g/ha, read-out: Percent inhibition SOLNI) was found to be 50%; in experiment [7] (Urochloa platyphylla, PPI application, 30 g/ha, read-out: Percent inhibition BRAPP) it was 40%; with SETVI (green foxtail) (Setaria viridis, weed, PPI application, 30 g/ha, read-out: Percent inhibition SETVI) it was 100%; in the experiment on POAAN (annual bluegrass) (Poa annua, 30 g/ha, read-out: Percent inhibition POAAN) it was 100%. The inhibition at 100 g/ha in the experiment on SOLNI (black nightshade) [6] (Solanum nigrum, PPI application, 100 g/ha, read-out: Percent inhibition SOLNI) stood at 100%; in [7] (Urochloa platyphylla, PPI application, 100 g/ha, read-out: Percent inhibition BRAPP), 70%; in the experiment on SETVI (green foxtail) (Setaria viridis, weed, PPI application, 100 g/ha, read-out: Percent inhibition SETVI), 100%; in the experiment with POAAN (annual bluegrass) (Poa annua, 100 g/ha, read-out: Percent inhibition POAAN), 100%. Further, the inhibition at 300 g/ha worked out at 100% in the experiment with SOLNI (black nightshade) [6] (Solanum nigrum, PPI application, 300 g/ha, read-out: Percent inhibition SOLNI); 100% in experiment [7] (Urochloa platyphylla, PPI application, 300 g/ha, read-out: Percent inhibition BRAPP); 100% with SETVI (green foxtail) (Setaria viridis, weed, PPI application, 300 g/ha, read-out: Percent inhibition SETVI); 100% in the experiment on POAAN (annual bluegrass) (Poa annua, 300 g/ha, read-out: Percent inhibition POAAN). The inhibition at 900 g/ha amounted to 100% in the experiment with SOLNI (black nightshade) [6] (Solanum nigrum, PPI application, 900 g/ha, read-out: Percent inhibition SOLNI); 100% in [7] (Urochloa platyphylla, PPI application, 900 g/ha, read-out: Percent inhibition BRAPP); 100% with SETVI (green foxtail) (Setaria viridis, weed, PPI application, 900 g/ha, read-out: Percent inhibition SETVI); 100% with POAAN (annual bluegrass) (Poa annua, 900 g/ha, read-out: Percent inhibition POAAN). Moreover, in the experiment with SOLNI (black nightshade) [6] (pre-plant incorporated, GR80 = lowest tested rate with 80% or greater inhibition, approx. 14 days after treating, 30/21° C.), the “PPI activity (GR80) SOLNI” value came to 100 g/ha. For the same molecule, the “PPI activity GR80, BRAPP” value in [7] (setting [8]) came to 30 g/ha. For the same molecule, the “PPI activity GR80, SETVI” value with SETVI (green foxtail) (setting [8]) came to 30 g/ha.

In the case of `CCN(CC)C(=O)n1cnc(S(=O)(=O)C(F)(F)SC)n1` [Example 9], the “Pre-emergence activity (GR80) SOLNI” value in the experiment with SOLNI (black nightshade) [1] came to 100 g/ha. In addition, the “Pre-emergence activity (GR80) CIRAR” value in experiment [2] is reported as 100 g/ha. In addition, in experiment [3], the “Pre-emergence activity (GR80) SORHA” value is recorded as 100 g/ha. Moreover, the “Pre-emergence activity GR80, POLCO” value with POLCO (wild buckwheat) is “[empty]”. Besides, in [4], the “Pre-emergence activity GR80, VERPE” value was determined as 100 g/ha. In addition, the “Pre-emergence activity (GR80) AGSST” value in [5] turned out to be 30 g/ha. The “Percent inhibition SOLNI” value in the experiment with SOLNI (black nightshade) [6] (PPI application, 30 g/ha) stood at 95%; in the experiment on SOLNI (black nightshade) [6] (PPI application, 100 g/ha), 100%; with SOLNI (black nightshade) [6] (PPI application, 300 g/ha), 100%; with SOLNI (black nightshade) [6] (PPI application, 900 g/ha), 99%. Moreover, the “Percent inhibition BRAPP” value in experiment [7] (PPI application, 30 g/ha) turned out to be 70%; in experiment [7] (PPI application, 100 g/ha), 80%; in experiment [7] (PPI application, 300 g/ha) it was 100%; in [7] (PPI application, 900 g/ha) it was 100%. Further, the “Percent inhibition SETVI” value with SETVI (green foxtail) (weed, PPI application, 30 g/ha) is reported as 99%; in the experiment with SETVI (green foxtail) (setting [9]), 100%; in the experiment with SETVI (green foxtail) (setting [10]) it was 100%; in the experiment on SETVI (green foxtail) (setting [11]), 100%. The “Percent inhibition POAAN” value with POAAN (annual bluegrass) (30 g/ha) is 90%; in the experiment on POAAN (annual bluegrass) (100 g/ha), 100%; in the experiment with POAAN (annual bluegrass) (300 g/ha), 100%; in the experiment with POAAN (annual bluegrass) (900 g/ha) it was 100%.

As to `CCN(CC)C(=O)n1cnc(S(=O)(=O)C(F)(F)SCc2ccccc2)n1` [Example 10], the “Pre-emergence activity (GR80) SOLNI” value in the experiment on SOLNI (black nightshade) [1] is on record as 300 g/ha. Besides, the “Pre-emergence activity (GR80) CIRAR” value in [2] stood at 300 g/ha. Moreover, in experiment [3], the “Pre-emergence activity (GR80) SORHA” value was 100 g/ha. Also, the “Pre-emergence activity GR80, POLCO” value in the experiment with POLCO (wild buckwheat) is “[empty]”. Moreover, the “Pre-emergence activity GR80, VERPE” value in experiment [4] amounted to 100 g/ha. In addition, in [5], the “Pre-emergence activity (GR80) AGSST” value worked out at 100 g/ha. For the same molecule, the “Percent inhibition SOLNI” value is listed as 20% with SOLNI (black nightshade) [6] (PPI application, 10 g/ha); 60% in the experiment on SOLNI (black nightshade) [6] (PPI application, 30 g/ha); 100% with SOLNI (black nightshade) [6] (PPI application, 100 g/ha); 80% in the experiment with SOLNI (black nightshade) [6] (PPI application, 300 g/ha); 100% in the experiment with SOLNI (black nightshade) [6] (PPI application, 900 g/ha). The “Percent inhibition BRAPP” value is given as 0% in experiment [7] (PPI application, 10 g/ha); 20% in experiment [7] (PPI application, 30 g/ha); 70% in experiment [7] (PPI application, 100 g/ha); 100% in [7] (PPI application, 300 g/ha); 100% in experiment [7] (PPI application, 900 g/ha). For the same molecule, the “Percent inhibition SETVI” value was found to be 0% in the experiment with SETVI (green foxtail) (weed, PPI application, 30 g/ha); 90% in the experiment on SETVI (green foxtail) (setting [9]); 100% in the experiment on SETVI (green foxtail) (setting [10]); 100% in the experiment on SETVI (green foxtail) (setting [11]). Besides, the “Percent inhibition POAAN” value in the experiment with POAAN (annual bluegrass) (10 g/ha) is given as 0%; in the experiment on POAAN (annual bluegrass) (30 g/ha), 10%; in the experiment with POAAN (annual bluegrass) (100 g/ha), 95%; in the experiment on POAAN (annual bluegrass) (300 g/ha), 100%; in the experiment on POAAN (annual bluegrass) (900 g/ha), 100%.
